According to US6664411B2, “Heterocyclic compounds and their use in medicine; process for their preparation and pharmaceutical compositions containing them” (Dr. Reddy's Laboratories Limited, priority 1997, dated 2003):
One block for each compound: values may come before it.

Assays:
[1] = system: Swiss albino mice and Guinea pigs; assay: Plasma triglyceride and total cholesterol lowering activity in Swiss albino mice and Guinea pigs; format: in vivo; settings: 3 mg/kg orally for 6 days; species of the table not stated (Swiss albino mice or Guinea pigs)
Procedure: Male Swiss albino mice (SAM) and male Guinea pigs were obtained from NIN and housed in DRF animal house. All these animals were maintained under 12 hour light and dark cycle at 25±1° C. Animals were given standard laboratory chow (NIN, Hyderabad, India) and water, ad libitum. SAM of 20-25 g body weight range and Guinea pigs of 500-700 g body weight range were used (Oliver, P., Plancke, M. O., Marzin, D., Clavey, V., Sauzieres, J and Fruchart, J. C. Effects of fenofibrate, gemfibrozil and nicotinic acid on plasma lipoprotein levels in normal and hyperlipidemic mice. Atherosclerosis. 1988. 70:107-114).
The test compounds were administered orally to Swiss albino mice at 0.3 to 30 mg/kg/day dose for 6 days. Control mice were treated with vehicle (0.25% Carboxymethylcellulose; dose 10 ml/kg). The test compounds were administered orally to Guinea pigs at 0.3 to 30 mg/kg/day dose for 6 days. Control animals were treated with vehicle (0.25% Carboxymethylcellulose; dose 5 ml/kg).
The blood samples were collected in fed state 1 hour after drug administration on 0 and 6 day of treatment. The blood was collected from the retro-orbital sinus through heparinised capillary in EDTA containing tubes. After centrifugation, plasma sample was separated for triglyceride and total cholesterol (Wieland, O. Methods of Enzymatic analysis. Bergermeyer, H. O., Ed., 1963. 211-214; Trinder, P. Ann. Clin. Biochem. 1969. 6:24-27). Measurement of plasma triglyceride, total cholesterol and HDL were done using commercial kits (Dr. Reddy's Diagnostic Division, Hyderabad, India).
(§1) 1. Percent reduction in Blood sugar/triglycerides/total cholesterol were calculated according to the formula: [formula]

C57BL/KsJ-db/db mice = assay: Efficacy in genetic models: blood sugar and triglyceride lowering in db/db mice; format: in vivo; settings: 3 mg/kg oral gavage daily for 6 days
Excerpt: Mutation in colonies of laboratory animals and different sensitivities to dietary regimens have made the development of animal models with non-insulin dependent diabetes and hyperlipidemia associated with obesity and insulin resistance possible. Genetic models such as db/db and ob/ob (Diabetes, (1982) 31(1):1-6) mice and zucker fa/fa rats have been developed by the various laboratories for understanding the pathophysiology of disease and testing the efficacy of new antidiabetic compounds (Diabetes, (1983) 32:830-838; Annu. Rep. Sankyo Res. Lab. (1994). 46:1-57). The homozygous animals, C57 BL/KsJ-db/db mice developed by Jackson Laboratory, US, are obese, hyperglycemic, hyperinsulinemic and insulin resistant (J. Clin. Invest., (1990) 85:962-967), whereas heterozygous are lean and normoglycemic. In db/db model, mouse progressively develops insulinopenia with age, a feature commonly observed in late stages of human type II diabetes when blood sugar levels are insufficiently controlled. The state of pancreas and its course vary according to the models. Since this model resembles that of type II diabetes mellitus, the compounds of the present invention were tested for blood sugar and triglycerides lowering activities.
Male C57BL/KsJ-db/db mice of 8 to 14 weeks age, having body weight range of 35 to 60 grams, bred at Dr. Reddy's Research Foundation (DRF) animal house, were used in the experiment. The mice were provided with standard feed (National Institute of Nutrition (NIN), Hyderabad, India) and acidified water, ad libitum. The animals having more than 350 mg/dl blood sugar were used for testing. The number of animals in each group was 4.
Test compounds were suspended on 0.25% carboxymethyl cellulose and administered to test group at a dose of 0.001 mg to 30 mg/kg through oral gavage daily for 6 days. The control group received vehicle (dose 10 ml/kg). On 6th day the blood samples were collected one hour after administration of test compounds/vehicle for assessing the biological activity.
The random blood sugar and triglyceride levels were measured by collecting blood (100 μl) through orbital sinus, using heparinised capillary in tubes containing EDTA which was centrifuged to obtain plasma. The plasma glucose and triglyceride levels were measured spectrometrically, by glucose oxidase and glycerol-3-PO4 oxidase/peroxidase enzyme (Dr. Reddy's Lab. Diagnostic Division Kits, Hyderabad, India) methods respectively.
The blood sugar and triglycerides lowering activities of the test compound was calculated according to the formula described below.
as §1

[2] = system: hypercholesterolemic Sprague Dawley rats; assay: Cholesterol lowering activity in hypercholesterolemic rat models; format: in vivo; settings: for LDL↓ (%): LDL calculated; for VLDL↓ (%): VLDL calculated
Procedure: Male Sprague Dawley rats (NIN stock) were bred in DRF animal house. Animals were maintained under 12 hour light and dark cycle at 25±1° C. Rats of 180-200 gram body weight range were used for the experiment. Animals were made hypercholesterolemic by feeding 2% cholesterol and 1% sodium cholate mixed with standard laboratory chow [National Institute of Nutrition (NIN), Hyderabad, India] for 6 days. Throughout the experimental period the animals were maintained on the same diet (Petit, D., Bonnefis, M. T., Rey, C and Infante, R. Effects of ciprofibrate on liver lipids and lipoprotein synthesis in normo- and hyperlipidemic rats. Atherosclerosis. 1988. 74: 215-225).
The test compounds were administered orally at a dose 0.1 to 30 mg/kg/day for 3 days. Control group was treated with vehicle alone (0.25% Carboxymethylcellulose; dose 10 ml/kg).
The blood samples were collected in fed state 1 hour after drug administration on 0 and 3 day of compound treatment. The blood was collected from the retro-orbital sinus through heparinised capillary in EDTA containing tubes. After centrifugation, plasma sample was separated for total cholesterol, HDL and triglyceride estimations. Measurement of plasma triglyceride, total cholesterol and HDL were done using commercial kits (Dr. Reddy's Laboratory, Diagnostic Division, India). LDL and VLDL cholesterol were calculated from the data obtained for total cholesterol, HDL and triglyceride. The reduction of various parameters examined are calculated according to the formula.
as §1
2. LDL and VLDL cholesterol levels were calculated according to the formula: [formula]
VLDL cholesterol in mg/dl=[Total cholesterol−HDL cholesterol−LDL cholesterol] mg/dl

hPPARγ1 = biological target: T1, hPPARγ1 (Homo sapiens, UniProt P37231); assay: Determination of hPPARγ activity (GAL4 fusion luciferase reporter, HEK-293 cells); format: cell-based; settings: Concentration 1 μM
T1 construct: expressed in transfected cells; host or cells: HEK-293
T1 sequence (P37231 238-503 limits assumed): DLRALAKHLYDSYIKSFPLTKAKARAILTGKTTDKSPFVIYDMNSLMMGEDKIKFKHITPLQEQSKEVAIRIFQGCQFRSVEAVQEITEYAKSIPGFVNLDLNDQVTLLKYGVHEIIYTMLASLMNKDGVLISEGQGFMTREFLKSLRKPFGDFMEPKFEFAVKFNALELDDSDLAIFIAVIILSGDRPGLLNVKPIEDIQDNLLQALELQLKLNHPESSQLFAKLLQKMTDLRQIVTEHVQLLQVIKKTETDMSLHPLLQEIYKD
Procedure: Ligand binding domain of hPPARγ1 was fused to DNA binding domain of Yeast transcription factor GAL4 in eucaryotic expression vector. Using lipofectamine (Gibco BRL, USA) as transfecting reagent HEK-293 cells were transfected with this plasmid and a reporter plasmid harboring the luciferase gene driven by a GAL4 specific promoter. Compound was added at 1 μM concentration after 48 hrs of transfection and incubated overnight. Luciferase activity as a function of drug binding/activation capacity of PPARγ was measured using Packard Luclite kit (Packard, USA) in Packard Top Count (Ivan Sadowski, Brendan Bell, Peter Broag and Melvyn Hollis. Gene. 1992. 118:137-141; Guide to Eukaryotic Transfections with Cationic Lipid Reagents. Life Technologies, GIBCO BRL, USA).

hPPARα = biological target: T2, hPPARα (Homo sapiens, UniProt Q07869); assay: Determination of hPPARα activity (GAL4 fusion luciferase reporter, HEK-293 cells); format: cell-based; settings: Concentration 50 μM
T2 construct: expressed in transfected cells; host or cells: HEK-293
T2 sequence (Q07869 239-466 limits assumed): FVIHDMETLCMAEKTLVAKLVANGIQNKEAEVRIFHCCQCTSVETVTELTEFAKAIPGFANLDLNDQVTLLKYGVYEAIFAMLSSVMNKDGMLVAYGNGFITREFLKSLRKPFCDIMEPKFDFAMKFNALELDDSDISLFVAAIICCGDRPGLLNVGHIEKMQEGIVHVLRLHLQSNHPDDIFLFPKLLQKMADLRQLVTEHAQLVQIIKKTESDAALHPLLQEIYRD
Procedure: Ligand binding domain of hPPARα was fused to DNA binding domain of Yeast transcription factor GAL4 in eucaryotic expression vector. Using superfect (Qiagen, Germany) as transfecting reagent HEK-293 cells were transfected with this plasmid and a reporter plasmid harboring the luciferase gene driven by a GALA specific promoter. Compound was added at different concentrations after 42 hrs of transfection and incubated overnight. Luciferase activity as a function of compound binding/activation capacity of PPARα was measured using Packard Luclite kit (Packard, USA) in Top Count (Ivan Sadowski, Brendan Bell, Peter Broag and Melvyn Hollis. Gene. 1992. 118: 137-141; Superfect Transfection Reagent Handbook. February, 1997. Qiagen, Germany).

SMILES: CCOC(Cc1ccc(OCC2NC(=O)c3cc(Cl)ccc3N2)cc1)C(=O)O (racemic) [Example 18, (±)-2-Ethoxy-3-[4-[[6-chloro-4-oxo-1,2,3,4-tetrahydro-2-quinazolinyl]methoxy]phenyl]propanoic Acid]
- Triglyceride (%)↓ [1]: 63%

- melting point: 64 to 68 °C
SMILES: CCOC(Cc1ccc(OCCN2COc3ccccc3C2=O)cc1)C(=O)NC(CO)c1ccccc1 [Example 7a, [2R, N(1S)] 2-Ethoxy-3-[4-[2-[4-oxo-3,4-dihydro-1,3-benzoxazin-3-yl]ethoxy]phenyl]-N-(2-hydroxy-1-phenylethyl)propanamide]

SMILES: CCOC(Cc1ccc(OCC2NC(=O)c3ccccc3O2)cc1)C(=O)O (racemic) [Example 14, (±)-2-Ethoxy-3-[4-[[4-oxo-3,4-dihydro 1,3-benzoxazin-2-yl]methoxy]phenyl]propanoic Acid]
- Reduction in Blood Glucose Level (%) (C57BL/KsJ-db/db mice): 55%
- Triglyceride Lowering (%) (C57BL/KsJ-db/db mice): 46%

SMILES: CCOC(Cc1ccc(OCC2Nc3ccccc3C(=O)N2C)cc1)C(=O)OC (racemic) [Example 19, (±)-Methyl 2-ethoxy-3-[4-[[3-methyl-4-oxo-1,2,3,4-tetrahydro-2-quinazolinyl]methoxy]phenyl]propanoate]
- Triglyceride (%)↓ [1]: 51%
- Reduction in Blood Glucose Level (%) (C57BL/KsJ-db/db mice): 31%
- Triglyceride Lowering (%) (C57BL/KsJ-db/db mice): 62%

SMILES: CCOC(Cc1ccc(OCCN2COc3ccccc3C2=O)cc1)C(=O)NC(CO)c1ccccc1 (stereo not shown) [Example 7]
- Triglyceride (%)↓ [1]: 61%

SMILES: CCOC(Cc1ccc(OCCN2COc3ccccc3C2=O)cc1)C(=O)[O-].[Na+] (racemic) [Example 4, (±)-Sodium 2-ethoxy-3-[4-[2-[4-oxo-3,4-dihydro-1,3-benzoxazin-3-yl]ethoxy]phenyl]propanoate]
- HDL↑ (%) ([2]; 3 mg/kg orally for 3 days): 256%
- Total Cholesterol (%)↓ ([2]; 3 mg/kg orally for 3 days): 64%
- Triglyceride (%)↓ ([2]; 3 mg/kg orally for 3 days): 61%
- LDL↓ (%) ([2]; 3 mg/kg orally for 3 days): 76%
- VLDL↓ (%) ([2]; 3 mg/kg orally for 3 days): 67%

SMILES: CCOC(Cc1ccc(OCC2NC(=O)c3ccccc3N2)cc1)C(=O)O (racemic) [Example 16, (±)-2-Ethoxy-3-[4-[[4-oxo-1,2,3,4-tetrahydro-2-quinazolinyl]methoxy]phenyl]propanoic Acid]
- Reduction in Blood Glucose Level (%) (C57BL/KsJ-db/db mice): 18%
- Triglyceride Lowering (%) (C57BL/KsJ-db/db mice): 13%

SMILES: CCOC(Cc1ccc(OCCN2COc3ccccc3C2=O)cc1)C(=O)O (racemic) [Example 3, (±) 2-Ethoxy-3-[4-[2-[4-oxo-3,4-dihydro-1,3-benzoxazin-3-yl]ethoxy]phenyl]propanoic Acid]
- HDL↑ (%) ([2]; 0.3 mg/kg orally for 3 days): 110%
- Total Cholesterol (%)↓ ([2]; 0.3 mg/kg orally for 3 days): 64%
- Triglyceride (%)↓ ([2]; 0.3 mg/kg orally for 3 days): 62%
- LDL↓ (%) ([2]; 0.3 mg/kg orally for 3 days): 74%
- VLDL↓ (%) ([2]; 0.3 mg/kg orally for 3 days): 50%
- PPARγ (hPPARγ1): 11
- PPARα (hPPARα): 7
